This is an account of results in US20260354376A1, “AGENT FOR IMPROVING ENVIRONMENTAL STRESS TOLERANCE” (OAT Agrio Co., Ltd., priority 2023, published 2026).

Type in all cases: in vivo
In assay [1] the test system is wheat (variety: Chikugoizumi). The experiment in a line: Test Example 11: dryness stress tolerance improvement on wheat (weight of grains per plant). The settings on record: dryness stress (irrigation about half), 0.1%. An excerpt: In Example 11, wheat (variety: Chikugoizumi) was sown in 1/5000a Wagner pots and cultivated at a density of 2 plants/pot. Next, all pots were irrigated with the same amount of tap water until the ear-emergence stage of wheat, and irrigation with a chemical solution was started after the ear emergence. In this test, dryness stress was induced by reducing the amount of irrigation to about half of the normal amount. After yellow ripening of the wheat was confirmed, the aboveground portions of the wheat were harvested, and the weight of grains per plant was investigated. A 30 ppm aqueous solution of the paprika pigment was used as the chemical solution.
In Comparative Example 13, the same test as in the test of Example 11 using the paprika pigment was repeated, except for using water for irrigation after the ear emergence.
In Reference Example 10, the same test as in the test of Example 11 using the paprika pigment was repeated, except for using a commercially available material for improving salt tolerance (material B) at the dilution factor shown in Table 11. […]
The results of Example 11, and Reference Examples 10 and 11 are expressed as the ratio (%) with respect to the result of Comparative Example 13 (untreated group) taken as 100.

Assay [2] relates to paddy rice (Koshihikari). As to the kind of experiment: Test Example 4: high-temperature stress tolerance improvement in rice hydroponics (regenerated root length, 35 °C). The conditions noted are these: for Ratio to Untreated Group (length of regenerated roots): 35 °C (High-Temperature Stress), 6 days, untreated = 100. As to the method:
In Example 4, a liquid culture medium prepared by diluting OAT House Fertilizer (registered trademark) Formulation A, manufactured by OAT Agrio Co., Ltd., was placed in an erlenmeyer flask. Then, the above-described capsanthin or paprika pigment was added to the liquid culture medium to give the concentrations shown in Table 4. Next, paddy rice (Koshihikari) was grown to seedlings in culture soil, and then the roots were cut to a predetermined length. Five of the seedlings were inserted into each erlenmeyer flask. Then, after cultivation at 35 °C for 6 days, the length of the roots of the rice was measured, and the length of regenerated roots was calculated.
In Comparative Example 6, the same test as in Example 4 was repeated, except for using the liquid culture medium not containing the capsanthin or paprika pigment.
The results of Example 4 are expressed as the ratio (%) with respect to the result of Comparative Example 6 (untreated group) taken as 100.

For assay [3], the system named is paddy rice (Koshihikari). The experiment in a line: Test Example 5: salt stress tolerance improvement in rice hydroponics (regenerated root length, sodium chloride). The conditions noted are these: sodium chloride 120 mM, 6 days, untreated = 100. Here is the method: In Example 5, a liquid culture medium prepared by diluting OAT House Fertilizer (registered trademark) Formulation A, manufactured by OAT Agrio Co., Ltd., was placed in an erlenmeyer flask. Then, sodium chloride was added to the liquid culture medium to give a final concentration of 120 mM, and the capsanthin or paprika pigment was added to the liquid culture medium to give the concentrations shown in […]. Next, paddy rice (Koshihikari) was grown to seedlings in culture soil, and then the roots were cut to a predetermined length. Five of the seedlings were inserted into each erlenmeyer flask. Then, after cultivation for 6 days, the length of the roots of the rice was measured, and the length of regenerated roots was calculated.
In Comparative Example 7, the same test as in Example 5 was repeated, except for using the liquid culture medium not containing the capsanthin or paprika pigment.
In Reference Example 4, the same test as in Example 5 was repeated, except for using the liquid culture medium containing a commercially available material for improving salt tolerance (material B) at the dilution factor shown in Table 5, instead of the capsanthin and paprika pigment.
The results of Example 5 and Reference Example 4 are expressed as the ratio (%) with respect to the result of Comparative Example 7 (untreated group) taken as 100.

For assay [4], the system named is paddy rice (Koshihikari). The experiment in a line: Test Example 3: growth-promoting effect in rice hydroponics (regenerated root length, 25 °C). The conditions noted are these: 25° C. (Growth Promotion), 6 days, untreated = 100. As to the method: In Example 3, a liquid culture medium prepared by diluting OAT House Fertilizer (registered trademark) Formulation A, manufactured by OAT Agrio Co., Ltd., was placed in an erlenmeyer flask. The capsanthin concentration in the paprika pigment (manufactured by San-Ei Gen F. F. I., Inc.) was measured by high performance liquid chromatography at General Incorporated Association Japan Food Research Laboratories. As a result, about 221 mg of capsanthin was contained in 100 g of the paprika pigment. The measurement conditions were as follows. • Model: LC-20 (manufactured by Shimadzu Corporation) • Detector: UV-VIS absorption spectrometer SPD-20AV (manufactured by Shimadzu Corporation) • Column: Shim-pack CLC-SIL (M) (size: 4.6 mm×150 mm) (manufactured by Shimadzu Corporation) • Column temperature: 30 °C. • Mobile phase: mixture of hexane and acetone (81:19) • Flow rate: 1.1 mL/min • Measurement wavelength: 474 nm • Injection volume: 30 μL
Next, paddy rice (Koshihikari) was grown to seedlings in culture soil, and then the roots of the rice were cut to a predetermined length. Five of the cut seedlings were inserted into each erlenmeyer flask containing the above-described liquid culture medium. Then, after cultivation at 25 °C for 6 days, the length of the roots of the rice was measured, and the length of regenerated roots was calculated.
In Comparative Example 5, the same test as in Example 3 was repeated, except for using the liquid culture medium not containing the capsanthin or paprika pigment.
In Reference Example 3, the same test as in Example 3 was repeated, except for using the liquid culture medium containing a commercially available material for improving high-temperature tolerance (material A) at the dilution factor shown in Table 3.
The dilution factor is shown for Reference Example 3, because the content of the active ingredient in the commercially available product is unknown.
The results of Example 3 and Reference Example 3 are expressed as the ratio (%) with respect to the result of Comparative Example 5 (untreated group) taken as 100.

With `CC(=O)O` [Potassium Acetate, potassium acetate], in assay [1] (untreated 7.3), the “Weight of Grains, Average” value is reported as 9.3 g DW/Plant. In assay [1] (untreated = 100), the “Weight of Grains, Ratio to Untreated Group” value worked out at 126%.

With `CC1=C(/C=C/C(C)=C/C=C/C(C)=C/C=C/C=C(C)/C=C/C=C(C)/C=C/C(=O)[C@]2(C)C[C@@H](O)CC2(C)C)C(C)(C)C[C@H](O)C1` [Capsanthin, capsanthin], the “Ratio to Untreated Group (length of regenerated roots)” value (shortened to “Ratio … (length of regenerated roots)”) turned out to be 115% in the assay with paddy rice (Koshihikari) [2] (capsanthin 0.00000663 ppm); 132% with paddy rice (Koshihikari) [2] (capsanthin 0.0000663 ppm); 113% in the assay with paddy rice (Koshihikari) [2] (capsanthin 0.000221 ppm); 122% in the assay with paddy rice (Koshihikari) [2] (capsanthin 0.00221 ppm); 114% in the assay on paddy rice (Koshihikari) [2] (capsanthin 0.00663 ppm); 109% with paddy rice (Koshihikari) [2] (capsanthin 0.0221 ppm). Moreover, the “Ratio … (length of regenerated roots)” value with paddy rice (Koshihikari) [2] (capsanthin 0.0663 ppm) was found to be 140%; with paddy rice (Koshihikari) [3] (capsanthin 0.0000663 ppm), 104%; in the assay with paddy rice (Koshihikari) [3] (capsanthin 0.000221 ppm), 103%; with paddy rice (Koshihikari) [3] (capsanthin 0.00221 ppm) it was 107%; in the assay on paddy rice (Koshihikari) [3] (capsanthin 0.00663 ppm) it was 114%; in the assay on paddy rice (Koshihikari) [3] (capsanthin 0.0221 ppm) it was 111%. In addition, the “Ratio … (length of regenerated roots)” value in the assay on paddy rice (Koshihikari) [3] (capsanthin 0.0663 ppm) came out at 126%; in the assay on paddy rice (Koshihikari) [4] (capsanthin 0.00000663 ppm), 104%; with paddy rice (Koshihikari) [4] (capsanthin 0.0000663 ppm), 102%; in the assay with paddy rice (Koshihikari) [4] (capsanthin 0.000221 ppm), 102%; in the assay on paddy rice (Koshihikari) [4] (capsanthin 0.00221 ppm) it was 108%. In the assay on paddy rice (Koshihikari) [2] (Tables 3 to 5 (25 °C, 35 °C, sodium chloride), same concentrations of capsanthin), the “effect compared with paprika pigment (in words)” value is “comparable effect to that of the paprika pigment”.
